Measured values from patent US20020143012A1, “Phenoxazine analogs useful as amyloid aggregation inhibitors and treatment of alzheimer's disease and disorders related to amyloidosis” (priority 2000, published 2002).
Several values for one entry are separate records, joined by “and”; a condition that tells them apart may be missing. Identical values can stand only once. Like-named read-outs stand apart in the source and are kept apart here.

Columns and labels:
Aβ(1-40) peptide = target: T1, Aβ(1-40) peptide (Homo sapiens, UniProt P05067); experiment: BAPA (Beta-Amyloid Peptide Aggregation), pH 6.0, filtration endpoint; format: biochemical
T1 construct: 10 μL 0.5 mg/mL Aβ(1-40) peptide in 20% HFIP
T1 sequence (P05067 672-711): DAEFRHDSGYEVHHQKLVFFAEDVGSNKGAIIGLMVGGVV
Procedure: 3. BAPA (Beta-Amyloid Peptide Aggregation)
This assay is used to provide a measure of inhibition by a compound against the aggregation behavior of the beta amyloid peptide.
The purpose of this assay is to provide a higher volume method of assaying the amount of beta amyloid aggregation using an endpoint assay based on filtration. In this assay, hexafluoroisopropanol (HFIP) is used to break down the initial amyloid peptide to a monomer state and a concentration of 33 μM is used, a concentration which is high enough so that aggregation will occur at pH 6.0 in several hours.
β-Amyloid Peptide Aggregation, pH 6.0 (BAPA)
To a 96-well plate (Costar 3794) is added 25 μL 50 mM Phosphate Buffer (pH 6.0), 10 μL 0.5 mg/mL Aβ(1-40) peptide in 20% HFIP+0.1 μL/assay radioiodinated ^125I Aβ(1-40) [^125I Aβ(1-40)], and 1 μL of the compound to be tested, starting at […] with a concentration of DMSO<1%. The reaction is incubated for 2 to 4 hours at room temperature. The reaction is stopped with 200 μL of 50 mM phosphate buffer, pH 6.0, and filtered through a 0.2 μm 96-well filter plate (Millipore MAGU N22). The filter plate is washed with 100 μL of the same phosphate buffer. Aggregation is detected on a Microbeta counter after impregnating the filters with Meltilex (1450-441) and is corrected for background.

Aβ(1-40) [1] = target: T2, Aβ(1-40) (Homo sapiens, UniProt P05067); experiment: BASSR (Beta-Amyloid Self-Seeding Radioassay), inhibitors of self-seeded amyloid fibril growth; format: biochemical; settings: 30 μM soluble Aβ(1-40), 125I-labeled Aβ(1-40), 37° C. 3 to 5 hours; replicate values; ppt = precipitate formed at the indicated concentration
T2 construct: Soluble Aβ(1-40) peptide (Bachem, Torrance, Calif.); purchased Bachem, Torrance, Calif
T2 sequence (P05067 672-711): as above
Procedure: 1. BASSR (Beta-Amyloid Self-Seeding Radioassay)
(§1) An assay for inhibitors of self-seeded amyloid fibril growth
(§2) Assay Buffer—50 mM sodium phosphate, pH 7.5, 100 mM NaCl, 0.02% NaN3, 1 M urea (filter and store at 4° C.)
Soluble Aβ(1-40) peptide (Bachem, Torrance, Calif.)—2.2 mg/mL in […] deionized H2O (is stored in aliquots at −20° C.; is kept on ice when thawed) will self-seed after 1 week storage. Typically, the solution is stored until no lag phase is seen in the assay.
^125I-labeled Aβ(1-40)—150K to 350K cpm/μL in 100% acetonitrile−0.1% trifluoroacetic acid (TFA)—1% β-mercaptoethanol (aliquots stored at −20° C). ^125I-labeled Aβ(1-40) is made in accordance with the procedure set forth by LeVine H., III, in Neurobiol. Aging, 1995;16:755, which is hereby incorporated by reference, or this reagent may be purchased from Amersham, Arlington Heights, Ill.
Final assay conditions: 30 μM soluble Aβ(1-40) in deionized water in assay buffer+20K to 50K cpm ^125I-labeled Aβ (1-40) per assay. Compound to be tested is dissolved in dimethylsulfoxide (DMSO), typically 5 to 50 mM stock, such that the final concentration of DMSO is<1% v/v in the assay.
Assay: Reaction mixture for 50 assays (on ice) is comprised of 0.1 to 0.2 μL of ^125I-labeled A^125I-labeled Aβ(1-40)+1 μL of soluble Aβ(1-40)+13.5 μL assay buffer per assay. The following are the amounts of the components of the reaction mixture sufficient for 50 assay wells.
1) The reaction mixture of above is prepared by mixing components and storing on ice.
b 2) 14.5 μL of the reaction mixture is pipetted into each of 50 wells on a polypropylene U-bottom 96-well microtiter plate on ice (Costar 3794).
(§3) 3) 1.7 μL of diluted compound to be tested is added to each well in a column of eight, including solvent control. Serial 3-fold dilutions from 1 mM (100 μM final) in assay buffer−urea=7 dilutions+zero. Each 96-well plate can therefore accommodate 11 samples+1 Congo Red control (0.039-5 μM final in 2-fold steps).
4) The plate with aluminum film (Beckman 538619) is sealed and incubated for 10 minutes on ice.
(§4) 5) The temperature is raised to 37° C. and incubated for 3 to 5 hours (depending on the lot of the peptide).
6) The aluminum film is removed and 200 μL/well of ice cold assay buffer with urea is added. The radiolabeled fibrils are collected by vacuum filtration through 0.2 μm pore size GVWP filters in 96-well plates (Millipore MAGV N22, Bedford, Mass.). The radioactivity of the filters is determined by using standard methods well-known to those skilled in the art.

Aβ(1-40) [2] = target: T2, Aβ(1-40); experiment: BASST (Beta-Amyloid Self-seeding, Thioflavin T), inhibitors of self-seeded amyloid fibril growth; format: biochemical; settings: 30 μM soluble Aβ(1-40), 37° C. 3 to 5 hours, thioflavin T fluorescence; replicate values
Procedure: 2. BASST (Beta-Amyloid Self-seeding, Thioflavin T)
as §1, §2
Soluble Aβ(1-40)—2.2 mg/mL in deionized H2O (is stored in aliquots at −20° C.; is kept on ice when thawed) will self-seed after 1 week storage. Typically, the solution is stored until no lag phase is seen in the assay.
Final assay conditions: 30 μM soluble Aβ(1-40) in deionized water in assay buffer. Compound to be tested is dissolved in DMSO, typically 5 to 50 mM stock, such that the final concentration of DMSO is<1% v/v in the assay.
Assay: Reaction mixture for 50 assays (on ice) is comprised of 1 μL of soluble Aβ(1-40)+13.5 μL assay buffer per assay. The following are the amounts of the components of the reaction mixture that result in each of the 50 assay wells.
1) The reaction mix above is prepared by mixing the components and storing on ice.
2) 14.5 μL of reaction mixture is pipetted into each of 50 wells of a polystyrene U-bottom, 96-well microtiter plate (Corning 25881-96) on ice.
as §3
4) The plate with aluminum film is sealed and incubated for 10 minutes on ice.
as §4
6) The aluminum film is removed and 250 μL/well of 5 μM thioflavin T (ThT) [T-3516, Sigma-Aldrich] is added in 50 mM glycine-NaOH, pH 8.5. Fluorescence is read on a plate reader (ex=440 nm/20 nm; em=485 nm/20 nm) within 5 minutes.

Aβ(1-42) = target: T3, Aβ(1-42) (Homo sapiens, UniProt P05067); experiment: BATYM assay, Aβ(1-42) aggregation by Thioflavin T fluorescence; format: biochemical; settings: Aβ1-42 final concentration 100 μM, 37° C. 1 day, ThT fluorescence; (P)/(Q) marks undefined
T3 construct: Required Aβ(1-42) (California Peptide) is dried from its hexafluoroisopropanol (HFIP) stock solution; purchased California Peptide
T3 sequence (P05067 672-713): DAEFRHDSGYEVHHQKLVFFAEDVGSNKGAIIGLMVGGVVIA
Procedure: Required Aβ(1-42) (California Peptide) is dried from its hexafluoroisopropanol (HFIP) stock solution. The Aβ(1-42) is dissolved in DMSO and then mixed with phosphate buffered saline (PBS) (pH 7.4). The mixed Aβ(1-42) solution is filtered with a GVWP 0.22 μm syringe filter (Millipore, Bedford, Mass.). The compound to be tested in DMSO (50 times concentrate) is put into each well (0.5 μL/well) of a 96-well plate. The Aβ(1-42) solution is added into each well (25 μL/well). The plate is centrifuged at 1000 g for 5 minutes and incubated at 37° C. for 1 day (Aβ1-42; final concentration 100 μM).
After incubation Thioflavin T (ThT) (30 μM) solution in glycine-NaOH buffer (pH 8.5, 50 mM) is added into each well (250 μL/well), fluorescence is measured (ex=440/20 nm, em=485/20 nm) using a fluorescence plate reader. The inhibitory activity is calculated as the reduction of fluorescence with the following formula:
Inhibition (%)={(F(Aβ)−F(Aβ+compound)}/{F(Aβ)−F(solvent−compound)}×100.
The IC50s are calculated by a curve-fitting program using the equation given below. The data is obtained from two different experiments in triplicate.
x=concentration of tested compound (M),

[3] = 33 μM Aβ(1-40), pH 6.0, 2 to 4 hours at room temperature, (Q) mark undefined, read-out: BAPA (IC50 = μM)
[4] = marked (BAPA2), variant not described, read-out: BAPA (IC50 = μM), value marked (BAPA2)

3-Nitrophenoxazinecarboxylic acid [Compound 3]
IC50 (Aβ(1-40) peptide; [3]): 62 µM
IC50 (Aβ(1-40) peptide; [4]): > 100 µM
IC50 (Aβ(1-40) [1]): 8 µM
IC50 (Aβ(1-40) [2]): 13 µM (2×) and 40 µM (2×) and 23 µM (2×)

O=C(O)c1cc([N+](=O)[O-])cc2c1Nc1cc(-c3ccccc3)ccc1O2 [Compound 2, 3-nitro-8-phenylphenoxazinecarboxylic acid]
IC50 (Aβ(1-40) peptide; [3]): 5 µM
IC50 (Aβ(1-40) [1]): 60 µM (2×) and 70 µM
IC50 (Aβ(1-42)): 4.15 µM
IC50 (Aβ(1-40) [2]): 1 µM

O=C(O)c1cc(OCc2ccccc2)cc2c1Nc1ccccc1O2 [Compound 4, 3-(Phenylmethoxy)phenoxazinecarboxylic acid]
IC50 (Aβ(1-40) peptide; [4]): > 50 µM
IC50 (Aβ(1-40) [1]): 14 µM
IC50 (Aβ(1-40) [2]): 8.4 µM and 45 µM (2×) and 8.44 µM

O=C(O)c1cc([N+](=O)[O-])cc2c1Nc1ccc(CCc3ccc(Cl)c(Cl)c3)cc1O2 [Compound 5, 7-[2-(3,4-dichlorophenyl)ethyl]-3-nitrophenoxazinecarboxylic acid]
melting point: > 250 °C
IC50 (Aβ(1-40) peptide; [3]): 0.9 µM
IC50 (Aβ(1-40) [1]): 60 µM and > 100 µM
IC50 (Aβ(1-42)): 7.89 µM and 3.02 µM
IC50 (Aβ(1-40) [2]): 3 µM and 1 µM

O=C(/C=C/c1ccc2c(c1)Oc1cc([N+](=O)[O-])cc(C(=O)O)c1N2)c1ccc(Cl)c(Cl)c1 [Compound 6, 7-[3-(3,4-Dichlorophenyl)-3-oxoprop-1-enyl]-3-nitrophenoxazinecarboxylic acid]
melting point: > 200 °C
IC50 (Aβ(1-40) peptide; [3]): > 100 µM
IC50 (Aβ(1-40) [1]): 21 µM and 22 µM and 25 µM
IC50 (Aβ(1-42)): 4.61 µM
IC50 (Aβ(1-40) [2]): 1 µM

O=C(O)c1cc([N+](=O)[O-])cc2c1Nc1ccc(CCCc3ccc(Cl)c(Cl)c3)cc1O2 [Compound 7, 7-[3-(3,4-Dichlorophenyl)propyl]-3-nitrophenoxazine carboxylic acid]
IC50 (Aβ(1-40) peptide; [3]): > 100 µM
IC50 (Aβ(1-40) [1]): 30 µM and 20 µM and 6 µM
IC50 (Aβ(1-42)): 1.88 µM
IC50 (Aβ(1-40) [2]): 0.5 µM

O=C(O)c1cc([N+](=O)[O-])cc2c1Nc1ccc(CCC(O)c3ccc(Cl)c(Cl)c3)cc1O2 (stereo not shown) [Compound 8, 7-[3-(3,4-Dichlorophenyl)-3-hydroxypropyl]-3-nitrophenoxazine carboxylic acid]
melting point: 218 to 220 °C
IC50 (Aβ(1-40) peptide; [3]): 100 µM
IC50 (Aβ(1-40) [1]): > 100 µM and 100 µM (2×)
IC50 (Aβ(1-42)): 4.18 µM
IC50 (Aβ(1-40) [2]): 0.6 µM

Nc1cc2c(c(C(=O)O)c1)Nc1ccc(CCCc3ccc(Cl)c(Cl)c3)cc1O2 [Compound 9, 3-Amino-7-[3-(3,4-dichlorophenyl)propyl]phenoxazine carboxylic acid]
melting point: 213 to 216 °C
IC50 (Aβ(1-40) peptide; [3]): 86 µM
IC50 (Aβ(1-40) [1]): 60 µM and > 100 µM
IC50 (Aβ(1-42)): 8.75 µM
IC50 (Aβ(1-40) [2]): 3 µM

O=C(O)c1cc([N+](=O)[O-])cc2c1Nc1cc3ccccc3cc1O2 [Compound 21, 3-nitrobenzo[b]phenoxazinecarboxylic acid]
melting point: > 230 °C
IC50 (Aβ(1-40) peptide; [3]): 67 µM
IC50 (Aβ(1-40) [1]): 12 µM and 11 µM and 10 µM
IC50 (Aβ(1-42)): 6.7 µM
IC50 (Aβ(1-40) [2]): 1 µM
